Results reported in patent publication US10485235B2, “Aryloxypyrimidinyl ethers as herbicides” (FMC Corporation, priority 2015, dated 2019).

Tests used:
Type in all cases: in vivo
[1] = system: barnyardgrass (Echinochloa crus-galli); experiment: Test A preemergence, barnyardgrass; conditions: Preemergence, 0 to 100 scale (0 no effect, 100 complete control)
In short: (§1)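 Approximately 10-day greenhouse assay. Formulated chemical (non-phytotoxic solvent plus surfactant) applied preemergence to soil over seeds or postemergence to plants of 2 to 10 cm. Endpoint: visual percent control, 0–100.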

[2] = system: kochia (Kochia scoparia); experiment: Test A preemergence, kochia; conditions: Preemergence, 0 to 100 scale (0 no effect, 100 complete control)
In short: as §1

[3] = system: ragweed (common ragweed, Ambrosia elatior); experiment: Test A preemergence, ragweed; conditions: Preemergence, 0 to 100 scale (0 no effect, 100 complete control)
In short: as §1

[4] = system: ryegrass, Italian (Italian ryegrass, Lolium multiflorum); experiment: Test A preemergence, Italian ryegrass; conditions: Preemergence, 0 to 100 scale (0 no effect, 100 complete control)
In short: as §1

[5] = system: foxtail, giant (giant foxtail, Setaria faberii); experiment: Test A preemergence, giant foxtail; conditions: Preemergence, 0 to 100 scale (0 no effect, 100 complete control)
In short: as §1

[6] = system: pigweed (Amaranthus retroflexus); experiment: Test A preemergence, pigweed; conditions: Preemergence, 0 to 100 scale (0 no effect, 100 complete control)
In short: as §1

[7] = system: barnyardgrass (Echinochloa crus-galli); experiment: Test A postemergence, barnyardgrass
In short: as §1

[8] = system: kochia (Kochia scoparia); experiment: Test A postemergence, kochia
In short: as §1

[9] = system: ragweed (common ragweed, Ambrosia elatior); experiment: Test A postemergence, ragweed
In short: as §1

[10] = system: ryegrass, Italian (Italian ryegrass, Lolium multiflorum); experiment: Test A postemergence, Italian ryegrass
In short: as §1

[11] = system: foxtail, giant (giant foxtail, Setaria faberii); experiment: Test A postemergence, giant foxtail
In short: as §1

[12] = system: pigweed (Amaranthus retroflexus); experiment: Test A postemergence, pigweed
In short: as §1

[13] = system: wheat (Triticum aestivum); experiment: Test A postemergence, wheat
In short: as §1

[14] = system: corn (Zea mays); experiment: Test A postemergence, corn
In short: as §1

[15] = system: blackgrass (Alopecurus myosuroides); experiment: Test A postemergence, blackgrass
In short: as §1

[16] = system: galium (catchweed bedstraw, Galium aparine); experiment: Test A postemergence, galium
In short: as §1

[17] = system: rice (Oryza sativa); experiment: Test B flooded paddy test, rice; conditions: 250 g ai/ha, Flood; visual rating after 13 to 15 days; scale 0 to 100, 0 is no effect, 100 is complete control
In short: (§2)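 Plants grown to 2-leaf stage, pots flooded to 3 cm above soil and compound applied directly to paddy water, depth maintained throughout. After 13-15 days in greenhouse, visual rating against untreated controls on 0-100 scale (0 no effect, 100 complete control).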

[18] = system: sedge, umbrella (small-flower umbrella sedge, Cyperus difformis); experiment: Test B flooded paddy test, umbrella sedge; conditions: 250 g ai/ha, Flood; visual rating after 13 to 15 days; scale 0 to 100, 0 is no effect, 100 is complete control
In short: as §2

[19] = system: ducksalad (Heteranthera limosa); experiment: Test B flooded paddy test, ducksalad; conditions: 250 g ai/ha, Flood; visual rating after 13 to 15 days; scale 0 to 100, 0 is no effect, 100 is complete control
In short: as §2

[20] = system: barnyardgrass (Echinochloa crus-galli); experiment: Test B flooded paddy test, barnyardgrass; conditions: 250 g ai/ha, Flood; visual rating after 13 to 15 days; scale 0 to 100, 0 is no effect, 100 is complete control
In short: as §2

[21] = 125 g ai/ha, postemergence, 0 to 100 scale, 0 is no effect, 100 is complete control, approximately 10 days
[22] = Postemergence, 31 g ai/ha, 0 to 100 scale (0 no effect, 100 complete control)

Structure (SMILES)	Plant response rating, Barnyardgrass ([1]; 31 g ai/ha)	Plant response rating, Barnyardgrass ([1]; 125 g ai/ha)	Plant response rating, Kochia ([2]; 31 g ai/ha)	Plant response rating, Kochia ([2]; 125 g ai/ha)	Plant response rating, Ragweed ([3]; 31 g ai/ha)	Plant response rating, Ragweed ([3]; 125 g ai/ha)	Plant response rating, Ryegrass, Italian ([4]; 31 g ai/ha)	Plant response rating, Ryegrass, Italian ([4]; 125 g ai/ha)	Plant response rating, Foxtail, Giant ([5]; 31 g ai/ha)	Plant response rating, Foxtail, Giant ([5]; 125 g ai/ha)	Plant response rating, Pigweed ([6]; 31 g ai/ha)	Plant response rating, Pigweed ([6]; 125 g ai/ha)	Plant response rating, Barnyardgrass [7, 21]	Plant response rating, Barnyardgrass [7, 22]	Plant response rating, Kochia [8, 21]	Plant response rating, Kochia [8, 22]	Plant response rating, Ragweed [9, 21]	Plant response rating, Ragweed [9, 22]	Plant response rating, Ryegrass, Italian [10, 21]	Plant response rating, Ryegrass, Italian [10, 22]	other results
C#Cc1cccc(Oc2ncc(Cl)cn2)c1OCCCF [Compound 71]	0	0	0	0	0	0	0	0	0	0	0	0	0	0	0	0	0	0	0	0	Plant response rating, Foxtail, Giant [11, 21]: 0; Plant response rating, Foxtail, Giant [11, 22]: 0; Plant response rating, Pigweed [12, 21]: 0; Plant response rating, Pigweed [12, 22]: 0; Plant response rating, Wheat [13, 21]: 0; Plant response rating, Wheat [13, 22]: 0; Plant response rating, Corn [14, 21]: 0; Plant response rating, Corn [14, 22]: 0; Plant response rating, Blackgrass [15, 21]: 0; Plant response rating, Blackgrass [15, 22]: 0; Plant response rating, Galium [16, 21]: 0; Plant response rating, Galium [16, 22]: 0; Plant response rating, Rice [17]: 0; Plant response rating, Sedge, Umbrella [18]: 0; Plant response rating, Ducksalad [19]: 0; Plant response rating, Barnyardgrass [20]: 0
N#Cc1cccc(Oc2ncc(Cl)cn2)c1OCCCC(F)(F)F [Compound 72]	10	80	0	10	0	0	0	20	10	90	0	60	30	10	70	30	10	0	10	0	Plant response rating, Foxtail, Giant [11, 21]: 40; Plant response rating, Foxtail, Giant [11, 22]: 10; Plant response rating, Pigweed [12, 21]: 60; Plant response rating, Pigweed [12, 22]: 30; Plant response rating, Wheat [13, 21]: 0; Plant response rating, Wheat [13, 22]: 0; Plant response rating, Corn [14, 21]: 20; Plant response rating, Corn [14, 22]: 10; Plant response rating, Blackgrass [15, 21]: 20; Plant response rating, Blackgrass [15, 22]: 0; Plant response rating, Galium [16, 21]: 60; Plant response rating, Galium [16, 22]: 20; Plant response rating, Rice [17]: 0; Plant response rating, Sedge, Umbrella [18]: 90; Plant response rating, Ducksalad [19]: 100; Plant response rating, Barnyardgrass [20]: 25
O=C(COc1c(Br)cccc1Oc1ncc(Cl)cn1)C(F)(F)C(F)(F)F [Compound 73]	0	0	0	0	0	0	0	0	0	0	40	50	10	0	50	0	0	0	0	0	Plant response rating, Foxtail, Giant [11, 21]: 10; Plant response rating, Foxtail, Giant [11, 22]: 0; Plant response rating, Pigweed [12, 21]: 60; Plant response rating, Pigweed [12, 22]: 30; Plant response rating, Wheat [13, 21]: 0; Plant response rating, Wheat [13, 22]: 0; Plant response rating, Corn [14, 21]: 10; Plant response rating, Corn [14, 22]: 0; Plant response rating, Blackgrass [15, 21]: 20; Plant response rating, Blackgrass [15, 22]: 0; Plant response rating, Galium [16, 21]: 40; Plant response rating, Galium [16, 22]: 10; Plant response rating, Rice [17]: 0; Plant response rating, Sedge, Umbrella [18]: 0; Plant response rating, Ducksalad [19]: 0; Plant response rating, Barnyardgrass [20]: 0
N#Cc1cccc(Oc2ncc(Cl)cn2)c1OCC(=O)C(F)(F)C(F)(F)F [Compound 74]	0	30	0	0	0	0	0	0	0	70	60	80	20	0	20	0	20	20	0	0	Plant response rating, Foxtail, Giant [11, 21]: 40; Plant response rating, Foxtail, Giant [11, 22]: 0; Plant response rating, Pigweed [12, 21]: 70; Plant response rating, Pigweed [12, 22]: 20; Plant response rating, Wheat [13, 21]: 0; Plant response rating, Wheat [13, 22]: 0; Plant response rating, Corn [14, 21]: 20; Plant response rating, Corn [14, 22]: 0; Plant response rating, Blackgrass [15, 21]: 0; Plant response rating, Blackgrass [15, 22]: 0; Plant response rating, Galium [16, 21]: 30; Plant response rating, Galium [16, 22]: 0; Plant response rating, Rice [17]: 0; Plant response rating, Sedge, Umbrella [18]: 0; Plant response rating, Ducksalad [19]: 0; Plant response rating, Barnyardgrass [20]: 0
CCC(=O)COc1c(C#N)cccc1Oc1ncc(Cl)cn1 [Compound 75]	0	50	0	60	0	0	0	0	0	40	50	100	0	0	20	10	0	0	0	0	Plant response rating, Foxtail, Giant [11, 21]: 0; Plant response rating, Foxtail, Giant [11, 22]: 0; Plant response rating, Pigweed [12, 21]: 20; Plant response rating, Pigweed [12, 22]: 10; Plant response rating, Wheat [13, 21]: 0; Plant response rating, Wheat [13, 22]: 0; Plant response rating, Corn [14, 21]: 10; Plant response rating, Corn [14, 22]: 0; Plant response rating, Blackgrass [15, 21]: 0; Plant response rating, Blackgrass [15, 22]: 0; Plant response rating, Galium [16, 21]: 20; Plant response rating, Galium [16, 22]: 10; Plant response rating, Rice [17]: 0; Plant response rating, Sedge, Umbrella [18]: 0; Plant response rating, Ducksalad [19]: 30; Plant response rating, Barnyardgrass [20]: 0
